Source: ChEMBL document CHEMBL2203180, “Novel nitric oxide-releasing isochroman-4-one derivatives: Synthesis and evaluation of antihypertensive activity” (Bioorg Med Chem, 2012)
Active and inactive are the calls of the source. The calls are words filed in the database; no cut-off is given here.

Columns and labels:
[1] = Induction of nitric oxide release in 0.1 mM phosphate buffer solution at pH 7.4 assessed as nitrate/nitrite level after 30 mins by Griess assay; format: physicochemical; details: pH 7.4, 0.5 h
[2] = Induction of nitric oxide release in 0.1 mM phosphate buffer solution at pH 7.4 assessed as nitrate/nitrite level after 80 mins by Griess assay; format: physicochemical; details: pH 7.4, 80 min
[3] = Induction of nitric oxide release in 0.1 mM phosphate buffer solution at pH 7.4 assessed as nitrate/nitrite level after 10 mins by Griess assay; format: physicochemical; details: pH 7.4, 10 min
[4] = Induction of nitric oxide release in 0.1 mM phosphate buffer solution at pH 7.4 assessed as nitrate/nitrite level after 120 mins by Griess assay; format: physicochemical; details: pH 7.4, 2 h
[5] = Induction of nitric oxide release in 0.1 mM phosphate buffer solution at pH 7.4 assessed as nitrate/nitrite level after 60 mins by Griess assay; format: physicochemical; details: pH 7.4, 1 h
[6] = Induction of nitric oxide release in 0.1 mM phosphate buffer solution at pH 7.4 assessed as nitrate/nitrite level after 150 mins by Griess assay; format: physicochemical; details: pH 7.4, 2.5 h
[7] = Induction of nitric oxide release in 0.1 mM phosphate buffer solution at pH 7.4 assessed as nitrate/nitrite level after 100 mins by Griess assay; format: physicochemical; details: pH 7.4, 100 min
Rattus norvegicus [8] = experiment: Antihypertensive activity in spontaneously hypertensive rat assessed as reduction of mean artery pressure at 80 mg/kg, po up to 24 hrs; format: functional, organism-based; set-up: dose 80 mg/kg
Rattus norvegicus [9] = experiment: Toxicity in spontaneously hypertensive rat assessed as change in heart rate at 80 mg/kg, po up to 24 hrs; format: organism-based; set-up: dose 80 mg/kg, route oral; details: in vivo
Rattus norvegicus [10] = experiment: Antihypertensive activity in spontaneously hypertensive rat assessed as reduction of diastolic arterial pressure at 80 mg/kg, po after 6 to 12 hrs; format: functional, Artery; set-up: scale not given: the % may be the effect or the level left
Rattus norvegicus [11] = experiment: Antihypertensive activity in spontaneously hypertensive rat assessed as reduction of diastolic arterial pressure at 40 mg/kg, po up to 24 hrs; format: functional, organism-based; set-up: dose 40 mg/kg; details: Artery
Rattus norvegicus [12] = experiment: Antihypertensive activity in spontaneously hypertensive rat assessed as reduction of blood pressure at 80 mg/kg, po up to 24 hrs; format: functional; set-up: scale not given: the % may be the effect or the level left
[13] = Induction of nitric oxide release in 0.1 mM phosphate buffer solution at pH 7.4 assessed as nitrate/nitrite level after 10 to 150 mins by Griess assay; format: physicochemical
Rattus norvegicus [14] = experiment: Antihypertensive activity in spontaneously hypertensive rat assessed as reduction of diastolic arterial pressure at 40 mg/kg, po after 6 to 12 hrs; format: functional, Artery; set-up: scale not given: the % may be the effect or the level left

| Activity [1] [µmol/L] | Activity [2] [µmol/L] | Activity [3] [µmol/L] | Activity [4] [µmol/L] | Activity [5] [µmol/L] | Activity [6] [µmol/L] | Activity [7] [µmol/L] | Activity [13] | SMILES | Activity (Rattus norvegicus [8]) | Activity (Rattus norvegicus [9]) | Activity (Rattus norvegicus [10]) [%] | Activity (Rattus norvegicus [11]) | Activity (Rattus norvegicus [12]) [%] | Activity (Rattus norvegicus [14]) [%] |
| --- | --- | --- | --- | --- | --- | --- | --- | --- | --- | --- | --- | --- | --- | --- |
| 5.08 | 6.27 | 4.05 | 6.59 | 6.04 | 8.72 | 6.55 |  | COc1ccc2c(c1OCC(=O)OCCCCO[N+](=O)[O-])COC(C)C2=O (centres undefined) |  |  |  |  |  |  |
| 10.41 | 14.7 | 10.37 | 17.61 | 11.91 | 20.62 | 14.61 |  | COc1cc2c(cc1OCC(=O)OCCCO[N+](=O)[O-])COC(C)C2=O (centres undefined) | Active | Non-toxic | >30 | Active | 40 |  |
| 10.84 | 13.12 | 10.62 | 13.27 | 13 | 16.68 | 13.35 |  | COc1ccc2c(c1OCC(=O)OCCO[N+](=O)[O-])COC(C)C2=O (centres undefined) |  |  |  | Active |  |  |
|  |  |  |  |  |  |  |  | CC1OCc2cc(O)c(O)cc2C1=O (racemic) |  |  |  | Active |  |  |
| 4.83 | 5.93 | 4.81 | 6.09 | 4.87 | 7.54 | 6.05 |  | COc1cc2c(cc1OCCCCO[N+](=O)[O-])C(=O)C(C)OC2 (centres undefined) |  |  |  |  |  |  |
| 2.46 | 3.84 | 2.19 | 4.01 | 3.02 | 4.02 | 4.03 |  | COc1ccc2c(c1OCCCCO[N+](=O)[O-])COC(C)C2=O (centres undefined) |  |  |  |  |  |  |
| 7.45 | 9.27 | 7.42 | 9.43 | 9.23 | 9.47 | 9.4 |  | COc1ccc2c(c1OCCCO[N+](=O)[O-])COC(C)C2=O (centres undefined) |  |  |  |  |  |  |
| 5.76 | 7.77 | 5.65 | 8.6 | 6.29 | 8.72 | 8.23 |  | COc1cc2c(cc1OCC(=O)OCCCO[N+](=O)[O-])C(=O)C(C)OC2 (centres undefined) |  |  |  |  |  |  |
| 8.81 | 11.95 | 8.43 | 12.1 | 10.07 | 13.99 | 12.09 |  | COc1cc2c(cc1OCC(=O)OCCO[N+](=O)[O-])C(=O)C(C)OC2 (centres undefined) |  |  |  |  |  |  |
| 5.84 | 6.52 | 5.56 | 8.1 | 6.04 | 10.06 | 7.56 |  | COc1cc2c(cc1OCCO[N+](=O)[O-])C(=O)C(C)OC2 (centres undefined) |  |  |  |  |  |  |
|  |  |  |  |  |  |  | Not Active | COc1cc2c(cc1O)C(=O)C(C)OC2 (centres undefined) |  |  |  |  |  |  |
|  |  |  |  |  |  |  |  | CC1OCc2c(ccc(O)c2O)C1=O (racemic) |  |  |  | Active |  |  |
| 1.19 | 3.84 | 0.84 | 4.01 | 2.27 | 4.86 | 3.95 |  | COc1ccc2c(c1OCC(=O)OCCCO[N+](=O)[O-])COC(C)C2=O (centres undefined) |  |  |  |  |  |  |
| 5.59 | 6.77 | 5.14 | 7.01 | 6.29 | 7.04 | 6.89 |  | COc1cc2c(cc1OCCCO[N+](=O)[O-])C(=O)C(C)OC2 (centres undefined) |  |  |  |  |  |  |
|  |  |  |  |  |  |  |  | C[C@H](CS)C(=O)N1CCC[C@H]1C(=O)O [CAPTOPRIL] |  |  |  | Active |  | >30 |
| 1.78 | 7.29 | 1.51 | 14.61 | 4.53 | 16.26 | 10.5 |  | COc1ccc2c(c1OCCO[N+](=O)[O-])COC(C)C2=O (centres undefined) | Active | Non-toxic | >30 | Active | 40 |  |
| 10.25 | 11.28 | 10.12 | 12.27 | 11.24 | 14.72 | 12.09 |  | COc1cc2c(cc1OCCO[N+](=O)[O-])COC(C)C2=O (centres undefined) |  |  |  |  |  |  |
| 5.17 | 7.85 | 4.81 | 8.68 | 7.72 | 12.99 | 8.31 |  | COc1cc2c(cc1OCCCCO[N+](=O)[O-])COC(C)C2=O (centres undefined) |  |  |  |  |  |  |
| 6.01 | 8.69 | 5.73 | 9.02 | 7.13 | 10.81 | 8.9 |  | COc1cc2c(cc1OCC(=O)OCCCCO[N+](=O)[O-])C(=O)C(C)OC2 (centres undefined) |  |  |  |  |  |  |
|  |  |  |  |  |  |  | Not Active | COc1cc2c(cc1O)COC(C)C2=O (centres undefined) |  |  |  |  |  |  |
| 6.94 | 11.11 | 6.66 | 12.94 | 8.64 | 16.26 | 11.34 |  | COc1cc2c(cc1OCC(=O)OCCO[N+](=O)[O-])COC(C)C2=O (centres undefined) |  |  |  |  |  |  |
| 17.87 | 18.3 | 17.45 | 18.95 | 18.12 | 28.58 | 18.81 |  | COc1cc2c(cc1OCCCO[N+](=O)[O-])COC(C)C2=O (centres undefined) | Active | Non-toxic | >30 | Active | 40 |  |
|  |  |  |  |  |  |  | Not Active | COc1ccc2c(c1O)COC(C)C2=O (centres undefined) |  |  |  |  |  |  |
| 7.45 | 11.7 | 7.42 | 11.69 | 8.72 | 14.92 | 11.67 |  | COc1cc2c(cc1OCC(=O)OCCCCO[N+](=O)[O-])COC(C)C2=O (centres undefined) |  |  |  |  |  |  |
